Here are results for three compounds from publication PMC12833730, “Discovery of a First‐in‐Class Covalent Allosteric SHP1 Inhibitor with Immunotherapeutic Activity” (Angewandte Chemie (International Ed. in English), 2025).

Experiment [1] has as its target T1, SHP1 (Homo sapiens, UniProt P29350).
T1 construct: SHP1, residues 245-543; made in house; host or cells: E. coli BL21(DE3)
Put plainly: IC50 after 10-min/60-min preincubation, DiFMUP phosphatase assay. It counts as biochemical. The following applies: negative control analogs of M029. An excerpt:
The PTP‐catalyzed reaction involves a nucleophilic attack by the conserved active site Cys side chain on the phosphorus atom of phosphotyrosine in the substrate.^[ [53] ^] As such, the PTPs could serve as prime targets for covalent inhibition. Previously described activity‐based probes or covalent ligands for the PTPs are either phosphotyrosine isosteres or thiol‐reactive compounds that covalently modify the active site residues (including the catalytic Cys) and lack sufficient isozyme specificity.^[ [54], [55], [56], [57], [58], [59], [60], [61] ^] Inspired by the resurgence in covalent inhibitors for difficult drug targets, we set out to discover covalent SHP1 inhibitors by screening for electrophilic fragments that bind covalently to SHP1. This strategy is increasingly utilized to identify novel ligands for a target of interest.^[ [47], [62], [63] ^] We assembled a library of 4600 Cys reactive molecules from the Enamine covalent fragment collections containing 49.0% acrylamide, 38.1% chloroacetamide, 5.15% chloromethylketone, 5.20% activated nitrile, 2.10% epoxide, and 0.53% disulfide (Figure S1A). We carried out a high‐throughput biochemical fragment screening of this curated commercially available library against the SHP1 catalytic domain (residues 245–543). Each fragment (500 µM) was incubated with SHP1 (500 nM) for 30 min at room temperature before diluting the reaction 5.5‐fold with 24.45 mM para‐nitrophenyl phosphate (pNPP) to measure the residual PTP activity. This concentration of substrate was chosen to out‐compete any remaining fragment to reduce the inactivation of SHP1 during the enzymatic hydrolysis of pNPP. After a 2‐min incubation at 25 °C, the reaction was quenched by the addition of 5N NaOH, and the production of para‐nitrophenol was determined by absorbance at 405 nm. This assay format afforded a Z’‐factor of 0.70 (Figure S1B), indicating a robust screen to reliably identify hit molecules. To enhance the probability of discovering covalent ligands with inherent preference for SHP1, we also counter‐screened the same library against SHP2, the closest homolog of SHP1, and two other widely studied PTPs, PTP1B and PTPN22 (also called LYP). […] Among these, 31 were repurchased based on their observed preference for SHP1 and structural diversity, 11 of which were confirmed as potential covalent inhibitors for SHP1 based on the time dependency of their half‐maximal inhibition concentration (IC50) values determined with a 10‐min and 60‐min preincubation time, respectively (Table 1).
To further confirm the time-dependent inhibition and determine the IC50 of acquired hits, repurchased compounds from Enamine were serially diluted in a 96-well plate, followed by the addition of proteins at 200 nM. After 10-minute and 60-minute preincubation, 2 µL of the mixture was transferred into 100 µM 6,8-Difluoro-4-Methylumbelliferyl Phosphate (DiFMUP, Invitrogen, cat# D6567) at a final volume of 200 µL. The reaction was allowed to proceed for 5 minutes and quenched by the addition of 40 µl of a 160 µM solution of bpV(Phen) (Sigma-Aldrich, cat# SML0889). The fluorescence signal was measured using a CLARIOstar Plus Microplate Spectrophotometer (BMG Labtech) using excitation and emission wavelengths of 340 nm and 450 nm, respectively. Data were fitted using Prism GraphPad 10.1.1.

In experiment [2] the test system is LCK, PLCγ and ERK1/2 phosphorylation in Jurkat T cells. As to the kind of experiment: TCR-LCK signaling immunoblot. It counts as cell-based. The following applies: 20 µM. Here is the method:
(§1) Supernatants from lysed cells were reduced, treated with iodoacetamide to cap thiol residues, and digested by trypsin for bottom‐up proteomics analysis. […] LCK is the direct substrate of SHP1 and ERK1/2, and PLCγ is the downstream effector protein of LCK‐mediated TCR signaling. […] Statistical analyses were performed with Graphpad Prism software 10.4.2 through the one‐way ANOVA test using Turkey post‐hoc comparison. ****p < 0.0001 was considered significant.
(§2) To further confirm M029 cellular target engagement, we investigated the effect of M029 on T cell function. SHP1 plays a negative role in T cells, and deletion of SHP1 in T cells lowers the activation threshold and enhances antitumor immunity.^[ [30], [31], [32], [33] ^] Mechanistically, SHP1 attenuates T cell receptor (TCR) signaling via dephosphorylation of the lymphocyte‐specific protein tyrosine kinase LCK.^[ [31], [84], [85], [86] ^] T cell activation leads to increased expression and secretion of interleukin 2 (IL‐2)^[ [87] ^] while the removal of SHP1 in T cells enhances IL‐2 production, cell proliferation, and cytolysis capacity.^[ [30], [32] ^] Accordingly, we sought to assess the impact of targeting SHP1 with M029 on TCR‐LCK signaling and T cell activation. […] M029 also dose‐dependently promoted IL‐2 production (Figure 4c). […] These findings corroborate that the observed increase in LCK phosphorylation and its downstream signaling indeed resulted from SHP1 inhibition by M029.
Immunoblotting: Cultured cells were lysed with ice-cold lysis buffer (50 mM Tris, pH 8.0, 150 mM NaCl, 10% Glycerol, 1% Triton-X-100) supplied with phosphatase inhibitor (Bimake) and protease inhibitor mixture (Roche Applied Science). Equal amounts of protein were resolved by SDS-PAGE, transferred to a nitrocellulose membrane, and subjected to immunoblotting. […]
On the technique in general: A western blot detects proteins with antibodies after separation by electrophoresis.

In another experiment the test system is IL-2 in Jurkat T cells. Put plainly: IL-2 mRNA / production. The format is cell-based. The following applies: 20 µM. Here is the method: as §1, §2
Experiment [3] concerns the target T1, SHP1. As to the kind of experiment: Vanadate protection jump-dilution experiment. The format is biochemical. As to conditions: 500 µM sodium orthovanadate, 30 min. As for the experimental part:
To further understand the mode of M029 action and ascertain whether M029 binds the SHP1 active site or a yet undefined novel site in SHP1, we performed a vanadate (VO4 ^3−) protection experiment. Vanadate is a reversible and competitive PTP inhibitor,^[ [76], [77] ^] and thus excessive vanadate would be expected to fully occupy the PTP active site and prevent covalent modifications of residues within the active site pocket. In this assay, SHP1 was co‐incubated with 30 µM M029 and 500 µM sodium orthovanadate or vehicle control for 30 min. The SHP1‐inhibitor complex was then rapidly diluted 100‐fold into a buffered solution containing 10 mM pNPP, and immediately, the absorbance at 405 nm was monitored over time to determine the remaining phosphatase activity.

T1 sequence (P29350 245-543): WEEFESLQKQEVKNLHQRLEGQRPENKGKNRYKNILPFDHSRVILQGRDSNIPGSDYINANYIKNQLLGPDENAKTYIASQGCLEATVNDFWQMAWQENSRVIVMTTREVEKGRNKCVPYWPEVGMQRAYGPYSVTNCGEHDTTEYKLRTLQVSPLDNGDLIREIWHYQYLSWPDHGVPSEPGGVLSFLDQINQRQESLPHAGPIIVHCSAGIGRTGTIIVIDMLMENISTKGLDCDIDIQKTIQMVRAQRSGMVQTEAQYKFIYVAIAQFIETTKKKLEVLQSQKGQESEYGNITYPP

As for `CC(=O)Nc1ccc(S(=O)(=O)Nc2sccc2C#N)cc1` [M054, N-(4-(N-(3-cyanothiophen-2-yl)sulfamoyl)phenyl)acetamide], at SHP1 [1], the “SHP1 inhibitory activity (in words)” value is given as “loses the ability to inactivate SHP1”. Moreover, the “phosphorylation levels of LCK, PLCγ, and ERK1/2” value in experiment [2] is reported as “neither impacted”. The IL-2 secretion entry with IL-2 in Jurkat T cells was “neither impacted”.
Regarding `O=C(CCl)Nc1ccccc1` [PhClAc, reference compound], the “SHP1 inhibitory activity (in words)” value at SHP1 [1] was “inactive against SHP1”. The “phosphorylation levels of LCK, PLCγ, and ERK1/2” value in experiment [2] was “neither impacted”. In the experiment on IL-2 in Jurkat T cells, the IL-2 secretion entry is “neither impacted”.
Consider `[Na+].[Na+].[Na+].[O]=[V]([O-])([O-])[O-]` [sodium orthovanadate, reference compound], for which the “SHP1 activity after 100-fold dilution of vanadate complex” value at SHP1 [3] was “fully recovered activity”.
